Substitutions are numbered along the chain they refer to. Where two headings read alike, the source gives them in different places.
Assays:
[1] = test system: LasR; parameters: method as in PMID 28119451; conditions: cited from earlier work
[2] = biological target: T1, RhlR (T58I) (Pseudomonas aeruginosa, UniProt P54292, T58I); assay: E. coli prhlA-luxCDABE luciferase reporter assay; assay type: cell-based, Escherichia coli
T1 construct: expressed in transfected cells; host or cells: E. coli carrying pBAD-A-rhlR mutant, pCS26-prhlA-luxCDABE and pACYC-pqsE or empty pACYC
T1 sequence (P54292 1-241 T58I): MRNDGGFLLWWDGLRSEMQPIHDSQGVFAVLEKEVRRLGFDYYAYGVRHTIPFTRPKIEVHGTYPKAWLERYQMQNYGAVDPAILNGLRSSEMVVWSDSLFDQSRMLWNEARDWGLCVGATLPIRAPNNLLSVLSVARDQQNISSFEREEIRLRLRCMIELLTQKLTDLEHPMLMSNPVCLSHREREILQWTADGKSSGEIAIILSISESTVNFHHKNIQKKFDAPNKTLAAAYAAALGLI
Description: (§1) Previous analysis of the RhlR LBP focused on highly conserved residues that were known from other AHL-binding proteins to be important contacts for AHL molecules, particularly the lactone head group. We performed conservation analyses on 300 LuxR-type receptors to determine variable and moderately conserved residues in the LBP (Fig. 1B) and, in conjunction with our previously determined experimental structure of WT RhlR bound to the synthetic agonist mBTL, used for docking C4- and C6HSL. Based on our docking simulations, C4- and C6HSL occupy a similar position in the LBP as mBTL, a highly efficacious activator of RhlR (Fig. 1C; Fig. S1). We targeted residues A44, G46, T58, L69, Y72, D81, I84, W96, and W108 (Fig. 1B and C). These residues were selected because of their proximity to the acyl tail of C4HSL, as well as the differences in conservation that are observed at these sites. We used an E. coli luciferase reporter assay to monitor ligand-dependent activation of WT RhlR and RhlR variants. WT RhlR and RhlR variants were expressed under the control of an arabinose-inducible promoter (Fig. S2). Transcription was monitored by light production via the expression of the luxCDABE operon controlled by the RhlR-dependent promoter of rhlA. Binding of RhlR to the rhlA promoter is highly dependent on the C4HSL-RhlR interaction, based on ChIP-seq analyses performed in P. aeruginosa as well as previously published E. coli reporter systems ([34], [39]). After expressing WT RhlR and RhlR variants in the E. coli reporter system, we performed dose response assays using C4HSL to calculate the concentration of C4HSL required to activate the reporter system to 50% maximum levels (EC50 value; Table 1). As expected, transcription activation by WT RhlR increased with increased C4HSL levels, with an EC50 value of ~2 µM. We observed a range of responses. Figure 1C depicts the targeted residues, which are colored based on the effect of amino acid substitution.
(§2) RhlR requires the accessory-binding protein, PqsE, for maximal activity. To determine if PqsE expression altered the activation of RhlR variants, we assessed AHL-dependent RhlR activation of the prhlA-luxCDABE reporter in the presence of a third plasmid that constitutively expresses PqsE in E. coli. […] RhlR variants that were still active but with increased EC50 values for C4HSL could have their activity enhanced by PqsE. […] Thus, alterations to the LBP can diminish the additive effect of PqsE-dependent transcription, indicating a potential role of allosteric conformational changes dependent on ligand occupancy. […] RhlR variants at residues I84 and W108 could not be activated by C4HSL, and thus, light levels remained low at all concentrations that were tested. Unlike the aforementioned variants, RhlR I84M/W and RhlR W108F/Y were activated by the expression of PqsE (Fig. S4).
(§3) All E. coli strains in this study were grown overnight with shaking in 5 mL Luria-Bertani (LB) media supplemented with 100 µg/mL ampicillin, 50 µg/mL kanamycin, and 15 µg/mL tetracycline at 37°C overnight. Overnight cultures were diluted 1:100 into fresh media, grown at 37°C with shaking for 2 h until reaching OD600 = 0.4. Cultures were induced with a final concentration of 0.1% arabinose, and 198 μL of the induced culture was mixed with 2 μL of C4HSL dilutions in a clear-bottom, black-opaque 96-well plate (Corning) and grown at 37°C with shaking for 4 h. The C4HSL dilution series was performed 1:1 in dimethyl sulfoxide (DMSO) with a top final concentration of 10 μM. Luminescence and optical density were recorded using a Glomax (Promega) plate reader.

[3] = biological target: T2, RhlR (T58F) (Pseudomonas aeruginosa, UniProt P54292, T58F); assay: E. coli prhlA-luxCDABE luciferase reporter assay; assay type: cell-based, Escherichia coli
T2 construct: expressed in transfected cells; host or cells: E. coli carrying pBAD-A-rhlR mutant, pCS26-prhlA-luxCDABE and pACYC-pqsE or empty pACYC
T2 sequence (P54292 1-241 T58F): T1 sequence (P54292 1-241 T58I) with I58F
Description: as §1, §2, §3

[4] = biological target: T3, RhlR (T58L) (Pseudomonas aeruginosa, UniProt P54292, T58L); assay: E. coli prhlA-luxCDABE luciferase reporter assay; assay type: cell-based, Escherichia coli
T3 construct: expressed in transfected cells; host or cells: E. coli carrying pBAD-A-rhlR mutant, pCS26-prhlA-luxCDABE and pACYC-pqsE or empty pACYC
T3 sequence (P54292 1-241 T58L): T1 sequence (P54292 1-241 T58I) with I58L
Description: as §1, §2, §3

[5] = biological target: T4, WT RhlR (Pseudomonas aeruginosa, UniProt P54292); assay: E. coli prhlA-luxCDABE luciferase reporter assay; assay type: cell-based; conditions: read-out: EC50
T4 construct: expressed in transfected cells; host or cells: E. coli carrying pBAD-A-rhlR, pCS26-prhlA-luxCDABE and pACYC-pqsE or empty pACYC
T4 sequence (P54292 1-241): T1 sequence (P54292 1-241 T58I) with I58T
Description: as §1, §2, §3

[6] = biological target: T5, RhlR (T58V) (Pseudomonas aeruginosa, UniProt P54292, T58V); assay: E. coli prhlA-luxCDABE luciferase reporter assay; assay type: cell-based
T5 construct: expressed in transfected cells; host or cells: E. coli carrying pBAD-A-rhlR mutant, pCS26-prhlA-luxCDABE and pACYC-pqsE or empty pACYC
T5 sequence (P54292 1-241 T58V): T1 sequence (P54292 1-241 T58I) with I58V
Description: as §1, §2, §3

[7] = biological target: 6x-His-PqsE (Pseudomonas aeruginosa, UniProt P20581 1-301); assay: cell-based or functional assay

Molecule: CCCCCCCCCC(=O)CC(=O)N[C@H]1CCOC1=O [3OC12HSL, N-(3-oxododecanoyl)-L-homoserine lactone]
- EC50 [1]: ~2 nM

Molecule: CCCCCC(=O)N[C@H]1CCOC1=O [C6HSL]
- EC50 ([2]; Vector (no pqsE)): 561 nM
- EC50 ([2]; pqsE co-expressed): 51.1 nM
- EC50 ([3]; Vector (no pqsE)): 580 nM
- EC50 ([3]; pqsE co-expressed): 103 nM
- EC50 ([4]; Vector (no pqsE)): 168 nM
- EC50 ([4]; pqsE co-expressed): 0.908 nM
- EC50 ([5]; Vector (no pqsE)): 12600 nM
- EC50 ([5]; pqsE co-expressed): 9240 nM
- EC50 ([6]; Vector (no pqsE)): 809 nM
- EC50 ([6]; pqsE co-expressed): 111 nM

B1: WT RhlR (receptor)
chain: T1 sequence (P54292 1-241 T58I) with I58T
- prhlA-luxCDABE reporter in E. coli: C4HSL-RhlR-dependent expression with PqsE expressed from a third plasmid (pACYC) against the empty vector [7]: ~20 fold
